From PMC6415263, “Proteins as Nano-Carriers for Bioactive Compounds. The Case of 7S and 11S Soy Globulins and Folic Acid Complexation” (Polymers, 2018)

Assays:
[1] = biological target: T1, 7S globulin (β-conglycinin); assay: intrinsic fluorescence quenching, modified double logarithm model; assay type: binding, Glycine max; conditions: Trizma buffer pH 7.0, I = 0.05 M, 25 °C; excitation 280 nm; protein 5 μM, FA 0-20 μM (methods section prints mM)
T1 construct: gene CG-1; native 7S fraction from defatted soybean flour (Nagano method), lyophilized; mixed trimers of alpha, alpha' and beta; 150-200 kDa; minor gamma-conglycinin
From the text: intrinsic fluorescence quenching, modified double logarithm model on 7S globulin (β-conglycinin)

11S globulin (glycinin) = biological target: T2, 11S globulin (glycinin); assay: as above; assay type: binding, Glycine max; conditions: Trizma buffer pH 7.0, I = 0.05 M, 25 °C; excitation 280 nm; protein 5 μM, FA 0-20 μM (methods section prints mM)
T2 construct: gene GY1; native 11S fraction from defatted soybean flour (Nagano method), lyophilized; hexamer of non-identical subunits, each acidic A and basic B polypeptide joined by disulfide; 300-380 kDa
From the text: intrinsic fluorescence quenching, modified double logarithm model on 11S globulin (glycinin)

Nc1nc2ncc(CNc3ccc(C(=O)N[C@@H](CCC(=O)O)C(=O)O)cc3)nc2c(=O)[nH]1 [folic acid]
Parameters derived from modified double logarithm model / Ka [M^-1] [1]: 4.00 × 10^4
Parameters derived from modified double logarithm model / Ka [M^-1] (11S globulin (glycinin)): 4.36 × 10^4
